# Laboratory results taken from patent US20020137929A1, “1 - (3-heterocyclylphenyl) isothiourea, -isourea, -guanidine and -amidine herbicidal agents” (Intellectual Property Department, BASF Aktiengesellschaft, priority 1998, published 2002).
# Experiments:
# CASOB (Sicklepod) = experiment: Preemergence herbicidal evaluation; assay type: in vivo, Cassia obtusifolia; conditions: rated 4-5 weeks after treatment
# In short: (§1)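 Test compound, dissolved in aqueous acetone, was sprayed over planted soil cups at an equivalent of about 0.0156 to 0.500 kg/ha; seeds had been mixed with potting soil. Greenhouse growth followed, with visual 0-9 scoring of injury at four to five weeks.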
# CYPSE (Flatsedge) = experiment: Preemergence weed control under flooded paddy conditions; assay type: in vivo, Cyperus serotinus; conditions: rated 3-4 weeks after treatment
# In short: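 Seeds or propagules sown in top 0.5 cm of silt loam soil, flooded 1.5 to 3 cm above surface throughout. Compound in 50/50 v/v aqueous/acetone pipetted into flood water at about 0.0313 to 0.500 kg/ha. Visual 0-9 rating versus control after three to four weeks in greenhouse.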
# SETVI (Foxtail, Green) = experiment: Postemergence herbicidal evaluation; assay type: in vivo, Setaria viridis; conditions: postemergence
# In short: (§2)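 Compound is applied as a foliar spray to seedlings about two weeks old, formulated in equal parts acetone and water with 0.5% TWEEN 20 and delivered at 40 psi to give about 0.0156–0.500 kg per hectare. Injury is rated visually 0–9 after four to five weeks.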
# ECHCG (Barnyardgrass) = experiment: Preemergence herbicidal evaluation; assay type: in vivo, Echinochloa crus-galli; conditions: rated 4-5 weeks after treatment
# In short: as §1
# [1] = test system: GLXMAW (Soybean, Williams); experiment: Postemergence herbicidal evaluation; assay type: in vivo, Glycine max, (L.) Merr. cv Williams; conditions: postemergence
# In short: as §2
# ABUTH (Velvetleaf) [2] = experiment: Preemergence herbicidal evaluation; assay type: in vivo, Abutilon theophrasti; conditions: rated 4-5 weeks after treatment
# In short: as §1
# [3] = test system: ECHORC (Watergrass (Calif.)); experiment: Postemergence weed control under flooded paddy conditions; assay type: in vivo, Echinochloa oryzoides; conditions: postemergence weeds, 3-4 weeks after treatment
# In short: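 Flood-water application, about 0.0313–0.500 kg/ha a.i. in aqueous/acetone 50/50 v/v; water depth 1.5–3 cm throughout. Weeds 3–5 cm, rice 1.5–2.5 leaf. Greenhouse; 0–9 visual rating vs control at 3–4 wk.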
# CYPIR (Rice Flatsedge) = experiment: as above; assay type: in vivo, Cyperus iria; conditions: postemergence weeds, 3-4 weeks after treatment
# Excerpt: Results of herbicide evaluation are expressed on a rating scale (0-9). The scale is based upon a visual observation of plant stand, vigor, malformation, size, chlorosis and overall plant appearance as compared with a control.
# Plastic containers containing weeds which are 3 to 5 cm tall and rice seedlings at the 1.5 to 2.5 leaf stage are flooded with water. The water is maintained at 1.5 to 3 cm above the soil surface for the duration of the experiment. Test compounds are applied as aqueous/ acetone mixtures 50/50 v/v directly into the flood water to provide the equivalent of about 0.0313 to 0.500 kg/ha of active ingredient. The treated containers are placed on greenhouse benches and cared for in accordance with conventional greenhouse procedures. Three to four weeks after treatment, the test is terminated and each container is examined and herbicidal effect rated according to the rating system provided in Example 37. The compounds evaluated are reported by compound number given in Example 37.
# [4] = test system: ECHORC (Watergrass (Calif.)); experiment: Preemergence weed control under flooded paddy conditions; assay type: in vivo, Echinochloa oryzoides; conditions: rated 3-4 weeks after treatment
# In short: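 First, seeds or propagules go into the top 0.5 cm of silt loam; next, water is held 1.5 to 3 cm over the soil; then compound (50/50 acetone/water) is pipetted into it at about 0.0313 to 0.500 kg/ha; finally plants are rated visually 0-9 after three to four weeks.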
# AMBEL (Ragweed, Common) = experiment: Preemergence herbicidal evaluation; assay type: in vivo, Ambrosia artemisifolia; conditions: rated 4-5 weeks after treatment
# In short: as §1
# ABUTH (Velvetleaf) [5] = experiment: Postemergence herbicidal evaluation; assay type: in vivo, Abutilon theophrasti; conditions: postemergence
# In short: as §2
# ZEAMX (Corn, Field) = experiment: Postemergence herbicidal evaluation; assay type: in vivo, Zea mays; conditions: postemergence
# In short: as §2
smiles,measurement,setting,value
"CN1C(=O)CSC1=Nc1cc(N2C(=O)C3=C(CCCC3)C2=O)c(F)cc1Cl [Compound 1, N-{4-chloro-2-fluoro-5-[(3-methyl-4-oxo-2-thiazolidinylidene)amino]phenyl}-1-cyclohexene-1,2-dicarboximide]",CASOB preemergence herbicidal rating,CASOB (Sicklepod); rate 0.0313 kg/ha,0.0
same,CASOB preemergence herbicidal rating,CASOB (Sicklepod); rate 0.0625 kg/ha,3.0
same,CASOB preemergence herbicidal rating,CASOB (Sicklepod); rate 0.1250 kg/ha,2.0
same,CASOB preemergence herbicidal rating,CASOB (Sicklepod); rate 0.2500 kg/ha,6.0
same,CASOB preemergence herbicidal rating,CASOB (Sicklepod); rate 0.5000 kg/ha,6.7
same,Herbicidal rating CYPSE,CYPSE (Flatsedge); 0.0313 kg/ha,0.0
same,Herbicidal rating CYPSE,CYPSE (Flatsedge); 0.0625 kg/ha,0.0
same,Herbicidal rating CYPSE,CYPSE (Flatsedge); 0.1250 kg/ha,0.0
same,Herbicidal rating CYPSE,CYPSE (Flatsedge); 0.2500 kg/ha,2.0
same,Herbicidal rating CYPSE,CYPSE (Flatsedge); 0.5000 kg/ha,8.0
same,SETVI herbicidal rating,"SETVI (Foxtail, Green); rate 0.0157 kg/ha",1.0
same,SETVI herbicidal rating,"SETVI (Foxtail, Green); rate 0.0313 kg/ha",3.0
same,SETVI herbicidal rating,"SETVI (Foxtail, Green); rate 0.0625 kg/ha",4.0
same,SETVI herbicidal rating,"SETVI (Foxtail, Green); rate 0.1250 kg/ha",7.0
same,SETVI herbicidal rating,"SETVI (Foxtail, Green); rate 0.2500 kg/ha",7.0
same,SETVI herbicidal rating,"SETVI (Foxtail, Green); rate 0.5000 kg/ha",9.0
same,ECHCG preemergence herbicidal rating,ECHCG (Barnyardgrass); rate 0.0313 kg/ha,2.0
same,ECHCG preemergence herbicidal rating,ECHCG (Barnyardgrass); rate 0.0625 kg/ha,5.0
same,ECHCG preemergence herbicidal rating,ECHCG (Barnyardgrass); rate 0.1250 kg/ha,6.0
same,ECHCG preemergence herbicidal rating,ECHCG (Barnyardgrass); rate 0.2500 kg/ha,5.0
same,ECHCG preemergence herbicidal rating,ECHCG (Barnyardgrass); rate 0.5000 kg/ha,7.7
same,GLXMAW herbicidal rating,[1]; rate 0.0157 kg/ha,4.0
same,GLXMAW herbicidal rating,[1]; rate 0.0313 kg/ha,4.5
same,GLXMAW herbicidal rating,[1]; rate 0.0625 kg/ha,4.5
same,GLXMAW herbicidal rating,[1]; rate 0.1250 kg/ha,5.0
same,GLXMAW herbicidal rating,[1]; rate 0.2500 kg/ha,5.5
same,GLXMAW herbicidal rating,[1]; rate 0.5000 kg/ha,6.0
same,ABUTH preemergence herbicidal rating,ABUTH (Velvetleaf) [2]; rate 0.0313 kg/ha,5.0
same,ABUTH preemergence herbicidal rating,ABUTH (Velvetleaf) [2]; rate 0.0625 kg/ha,9.0
same,ABUTH preemergence herbicidal rating,ABUTH (Velvetleaf) [2]; rate 0.1250 kg/ha,9.0
same,ABUTH preemergence herbicidal rating,ABUTH (Velvetleaf) [2]; rate 0.2500 kg/ha,9.0
same,ABUTH preemergence herbicidal rating,ABUTH (Velvetleaf) [2]; rate 0.5000 kg/ha,9.0
same,Herbicidal rating ECHORC,[3]; rate 0.0313 kg/ha,1.0
same,Herbicidal rating ECHORC,[3]; rate 0.0625 kg/ha,2.0
same,Herbicidal rating ECHORC,[3]; rate 0.1250 kg/ha,3.0
same,Herbicidal rating ECHORC,[3]; rate 0.2500 kg/ha,3.5
same,Herbicidal rating ECHORC,[3]; rate 0.5000 kg/ha,5.5
same,Herbicidal rating CYPIR,CYPIR (Rice Flatsedge); rate 0.0313 kg/ha,1.0
same,Herbicidal rating CYPIR,CYPIR (Rice Flatsedge); rate 0.0625 kg/ha,3.5
same,Herbicidal rating CYPIR,CYPIR (Rice Flatsedge); rate 0.1250 kg/ha,5.5
same,Herbicidal rating CYPIR,CYPIR (Rice Flatsedge); rate 0.2500 kg/ha,6.5
same,Herbicidal rating CYPIR,CYPIR (Rice Flatsedge); rate 0.5000 kg/ha,8.5
same,Herbicidal rating ECHORC,[4]; 0.0313 kg/ha,2.0
same,Herbicidal rating ECHORC,[4]; 0.0625 kg/ha,4.0
same,Herbicidal rating ECHORC,[4]; 0.1250 kg/ha,6.0
same,Herbicidal rating ECHORC,[4]; 0.2500 kg/ha,7.0
same,Herbicidal rating ECHORC,[4]; 0.5000 kg/ha,9.0
same,AMBEL preemergence herbicidal rating,"AMBEL (Ragweed, Common); rate 0.0313 kg/ha",0.0
same,AMBEL preemergence herbicidal rating,"AMBEL (Ragweed, Common); rate 0.0625 kg/ha",2.0
same,AMBEL preemergence herbicidal rating,"AMBEL (Ragweed, Common); rate 0.1250 kg/ha",5.0
same,AMBEL preemergence herbicidal rating,"AMBEL (Ragweed, Common); rate 0.2500 kg/ha",5.0
same,AMBEL preemergence herbicidal rating,"AMBEL (Ragweed, Common); rate 0.5000 kg/ha",6.7
same,ABUTH herbicidal rating,ABUTH (Velvetleaf) [5]; rate 0.0157 kg/ha,5.0
same,ABUTH herbicidal rating,ABUTH (Velvetleaf) [5]; rate 0.0313 kg/ha,8.0
same,ABUTH herbicidal rating,ABUTH (Velvetleaf) [5]; rate 0.0625 kg/ha,8.0
same,ABUTH herbicidal rating,ABUTH (Velvetleaf) [5]; rate 0.1250 kg/ha,9.0
same,ABUTH herbicidal rating,ABUTH (Velvetleaf) [5]; rate 0.2500 kg/ha,9.0
same,ABUTH herbicidal rating,ABUTH (Velvetleaf) [5]; rate 0.5000 kg/ha,9.0
same,ZEAMX herbicidal rating,"ZEAMX (Corn, Field); rate 0.0157 kg/ha",2.5
same,ZEAMX herbicidal rating,"ZEAMX (Corn, Field); rate 0.0313 kg/ha",3.5
same,ZEAMX herbicidal rating,"ZEAMX (Corn, Field); rate 0.0625 kg/ha",4.0
same,ZEAMX herbicidal rating,"ZEAMX (Corn, Field); rate 0.1250 kg/ha",5.0
same,ZEAMX herbicidal rating,"ZEAMX (Corn, Field); rate 0.2500 kg/ha",5.5
same,ZEAMX herbicidal rating,"ZEAMX (Corn, Field); rate 0.5000 kg/ha",6.5
"CN1C(=O)C(F)SC1=Nc1cc(N2C(=O)C3=C(CCCC3)C2=O)c(F)cc1Cl (centres unmarked) [Compound 5, N-{4-chloro-2-fluoro-5-[(5-fluoro-3-methyl-4-oxo-2-thiazolidinylidene)amino]phenyl}-1-cyclohexene-1,2-dicarboximide]",CASOB preemergence herbicidal rating,CASOB (Sicklepod); rate 0.0625 kg/ha,0.0
same,CASOB preemergence herbicidal rating,CASOB (Sicklepod); rate 0.1250 kg/ha,0.0
same,CASOB preemergence herbicidal rating,CASOB (Sicklepod); rate 0.2500 kg/ha,0.0
same,CASOB preemergence herbicidal rating,CASOB (Sicklepod); rate 0.5000 kg/ha,0.0
same,Herbicidal rating CYPSE,CYPSE (Flatsedge); 0.1250 kg/ha,0.0
same,Herbicidal rating CYPSE,CYPSE (Flatsedge); 0.2500 kg/ha,0.0
same,Herbicidal rating CYPSE,CYPSE (Flatsedge); 0.5000 kg/ha,1.0
same,SETVI herbicidal rating,"SETVI (Foxtail, Green); rate 0.0157 kg/ha",0.0
same,SETVI herbicidal rating,"SETVI (Foxtail, Green); rate 0.0313 kg/ha",0.0
same,SETVI herbicidal rating,"SETVI (Foxtail, Green); rate 0.0625 kg/ha",2.0
same,SETVI herbicidal rating,"SETVI (Foxtail, Green); rate 0.1250 kg/ha",4.0
same,SETVI herbicidal rating,"SETVI (Foxtail, Green); rate 0.2500 kg/ha",8.0
same,SETVI herbicidal rating,"SETVI (Foxtail, Green); rate 0.5000 kg/ha",4.0
same,ECHCG preemergence herbicidal rating,ECHCG (Barnyardgrass); rate 0.0625 kg/ha,0.0
same,ECHCG preemergence herbicidal rating,ECHCG (Barnyardgrass); rate 0.1250 kg/ha,2.0
same,ECHCG preemergence herbicidal rating,ECHCG (Barnyardgrass); rate 0.2500 kg/ha,6.0
same,ECHCG preemergence herbicidal rating,ECHCG (Barnyardgrass); rate 0.5000 kg/ha,7.0
same,ABUTH preemergence herbicidal rating,ABUTH (Velvetleaf) [2]; rate 0.0625 kg/ha,0.0
same,ABUTH preemergence herbicidal rating,ABUTH (Velvetleaf) [2]; rate 0.1250 kg/ha,0.0
same,ABUTH preemergence herbicidal rating,ABUTH (Velvetleaf) [2]; rate 0.2500 kg/ha,0.0
same,ABUTH preemergence herbicidal rating,ABUTH (Velvetleaf) [2]; rate 0.5000 kg/ha,0.0
same,Herbicidal rating ECHORC,[3]; rate 0.1250 kg/ha,0.5
same,Herbicidal rating ECHORC,[3]; rate 0.2500 kg/ha,1.0
same,Herbicidal rating ECHORC,[3]; rate 0.5000 kg/ha,2.0
same,Herbicidal rating CYPIR,CYPIR (Rice Flatsedge); rate 0.1250 kg/ha,0.0
same,Herbicidal rating CYPIR,CYPIR (Rice Flatsedge); rate 0.2500 kg/ha,0.0
same,Herbicidal rating CYPIR,CYPIR (Rice Flatsedge); rate 0.5000 kg/ha,0.0
same,Herbicidal rating ECHORC,[4]; 0.1250 kg/ha,1.0
same,Herbicidal rating ECHORC,[4]; 0.2500 kg/ha,2.0
same,Herbicidal rating ECHORC,[4]; 0.5000 kg/ha,4.0
same,AMBEL preemergence herbicidal rating,"AMBEL (Ragweed, Common); rate 0.0625 kg/ha",0.0
same,AMBEL preemergence herbicidal rating,"AMBEL (Ragweed, Common); rate 0.1250 kg/ha",0.0
same,AMBEL preemergence herbicidal rating,"AMBEL (Ragweed, Common); rate 0.2500 kg/ha",0.0
same,AMBEL preemergence herbicidal rating,"AMBEL (Ragweed, Common); rate 0.5000 kg/ha",0.0
same,ABUTH herbicidal rating,ABUTH (Velvetleaf) [5]; rate 0.0157 kg/ha,1.0
same,ABUTH herbicidal rating,ABUTH (Velvetleaf) [5]; rate 0.0313 kg/ha,2.0
same,ABUTH herbicidal rating,ABUTH (Velvetleaf) [5]; rate 0.0625 kg/ha,9.0
same,ABUTH herbicidal rating,ABUTH (Velvetleaf) [5]; rate 0.1250 kg/ha,9.0
same,ABUTH herbicidal rating,ABUTH (Velvetleaf) [5]; rate 0.2500 kg/ha,9.0
same,ABUTH herbicidal rating,ABUTH (Velvetleaf) [5]; rate 0.5000 kg/ha,9.0
same,ZEAMX herbicidal rating,"ZEAMX (Corn, Field); rate 0.0157 kg/ha",3.5
same,ZEAMX herbicidal rating,"ZEAMX (Corn, Field); rate 0.0313 kg/ha",3.5
same,ZEAMX herbicidal rating,"ZEAMX (Corn, Field); rate 0.0625 kg/ha",4.0
same,ZEAMX herbicidal rating,"ZEAMX (Corn, Field); rate 0.1250 kg/ha",3.5
same,ZEAMX herbicidal rating,"ZEAMX (Corn, Field); rate 0.2500 kg/ha",4.0
same,ZEAMX herbicidal rating,"ZEAMX (Corn, Field); rate 0.5000 kg/ha",3.5
